# Patent publication US9796702B2, “Dihydroquinoline pyrazolyl compounds” (Hoffmann-La Roche Inc., priority 2015, dated 2017)
# Tests used:
# human CYP11B1 = human CYP11B1 (Homo sapiens (Human), UniProt P15538); test: G-402 cellular enzyme assay, human CYP11B1 (cortisol release); assay type: cell-based; conditions: G-402 cells expressing human CYP11B1; 1 μM Deoxycortisol
# From the text: (§1) Herein we identified the use of the G-402 cell line as a host cell to ectopically express (transiently or stably) enzymes of the CYP11 family. Specifically we developed stable G-402 cells expressing ectopically human CYP11B1, human CYP11B2, human CYP11A1, cynmolgus CYP11B1 or cynomolgus CYP11B2 enzyme activity. Importantly the identified cell line G-402 expresses co-factors (adrenodoxin and adrenodoxin reductase) important for the activity of the CYP11 family and no relevant enzyme activity of the CYP11 family (in comparison to H295R cells) was detected in these cells. Therefore the G-402 cell line is uniquely suited as a host cell for the ectopic expression of enzymes from the CYP11 family.
# (§2) G-402 cells can be obtained from ATCC (CRL-1440) and were originally derived from a renal leiomyoblastoma.
# (§3) The expression plasmids contains the ORF for either human/cyno CYP11B1 or CYP11B2 under the control of a suitable promoter (CMV-promoter) and a suitable resistance marker (neomycin). Using standard techniques the expression plasmid is transfected into G-402 cells and these cells are then selected for expressing the given resistance markers. Individual cell-clones are then selected and assessed for displaying the desired enzymatic activity using 11-Deoxycorticosterone (Cyp11B2) or 11-Deoxycortisol (Cyp11B1) as a substrate.
# (§4) G-402 cells expressing CYP11 constructs were established as described above and maintained in McCoy's 5a Medium Modified, ATCC Catalog No. 30-2007 containing 10% FCS and 400 μg/ml G418 (Geneticin) at 37° C. under an atmosphere of 5% CO2/95% air. Cellular enzyme assays were performed in DMEM/F12 medium containing 2.5% charcoal treated FCS and appropriate concentration of substrate (0.3-10 uM 11-Deoxycorticosterone, 11-Deoxycortisol or Corticosterone). For assaying enzymatic activity, cells were plated onto 96 well plates and incubated for 16 h. An aliquot of the supernatant is then transferred and analyzed for the concentration of the expected product (Aldosterone for CYP11B2; Cortisol for CYP11B1). The concentrations of these steroids can be determined using HTRF assays from CisBio analyzing either Aldosterone or Cortisol.
# (§5) Inhibition of the release of produced steroids can be used as a measure of the respective enzyme inhibition by test compounds added during the cellular enzyme assay. The dose dependent inhibition of enzymatic activity by a compound is calculated by means of plotting added inhibitor concentrations (x-axes) vs. measured steroid/product level (y-axes). The inhibition is then calculated by fitting the following 4-parameter sigmoidal function (Morgan-Mercer-Flodin (MMF) model) to the raw data points using the least squares method:
# (§6) [formula] wherein, A is the maximum y value, B is the EC50 factor determined using XLFit, C is the minimum y value and D is the slope value.
# (§7) EC50 values for compounds claimed herein were tested with the G402-based assay system described. Cyp11B2 enzyme activity was tested in presence of 1 μM Deoxycorticosterone and variable amounts of inhibitors; Cyp11B1 enzyme activity was tested in presence of 1 μM Deoxycortisol and variable amounts of inhibitors.
# CYP11B2 [1] = molecular target: T1, CYP11B2 (Homo sapiens (Human), UniProt P19099); test: G-402 cellular enzyme assay, human CYP11B2 (aldosterone release); assay type: cell-based; conditions: G-402 cells expressing human CYP11B2; 1 μM Deoxycorticosterone
# From the text: as §1, §2, §3, §4, §5, §6, §7
# [2] = rats with experimental heart failure; cited from earlier work
# [3] = cited from earlier work; for plasma aldosterone: FAD286: 4 weeks of treatment, spironolactone: 4 and 8 weeks of treatment; for cardiac and aortic medial hypertrophy / renal effects (albuminuria, azotemia, renovascular hypertrophy, glomerular injury, PAI-1 and osteopontin mRNA, tubulointerstitial fibrosis): angiotensin II and high salt treatment, rat; for angiotensin II and salt-stimulated PAI-1 mRNA expression: aorta and heart
# CYP11B2 [4] = molecular target: T1, CYP11B2; conditions: patients with primary aldosteronism, cited from earlier work
# CYP11B2 [5] = conditions: patients with primary aldosteronism; cited from earlier work
# Sequence of human CYP11B1 (P15538 25-503): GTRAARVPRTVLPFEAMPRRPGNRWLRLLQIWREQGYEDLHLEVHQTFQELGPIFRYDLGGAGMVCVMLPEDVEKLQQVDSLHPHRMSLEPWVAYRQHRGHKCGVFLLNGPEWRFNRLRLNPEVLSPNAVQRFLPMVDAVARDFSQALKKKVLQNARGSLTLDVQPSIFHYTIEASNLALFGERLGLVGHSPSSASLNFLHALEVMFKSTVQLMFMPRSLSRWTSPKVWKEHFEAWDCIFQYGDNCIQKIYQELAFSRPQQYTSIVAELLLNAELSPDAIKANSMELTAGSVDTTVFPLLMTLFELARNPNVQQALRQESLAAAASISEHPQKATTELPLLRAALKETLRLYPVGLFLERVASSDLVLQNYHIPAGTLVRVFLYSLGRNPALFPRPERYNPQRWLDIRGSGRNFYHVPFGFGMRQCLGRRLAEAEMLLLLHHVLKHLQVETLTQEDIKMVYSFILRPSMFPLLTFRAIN
# T1 sequence (P19099 25-503): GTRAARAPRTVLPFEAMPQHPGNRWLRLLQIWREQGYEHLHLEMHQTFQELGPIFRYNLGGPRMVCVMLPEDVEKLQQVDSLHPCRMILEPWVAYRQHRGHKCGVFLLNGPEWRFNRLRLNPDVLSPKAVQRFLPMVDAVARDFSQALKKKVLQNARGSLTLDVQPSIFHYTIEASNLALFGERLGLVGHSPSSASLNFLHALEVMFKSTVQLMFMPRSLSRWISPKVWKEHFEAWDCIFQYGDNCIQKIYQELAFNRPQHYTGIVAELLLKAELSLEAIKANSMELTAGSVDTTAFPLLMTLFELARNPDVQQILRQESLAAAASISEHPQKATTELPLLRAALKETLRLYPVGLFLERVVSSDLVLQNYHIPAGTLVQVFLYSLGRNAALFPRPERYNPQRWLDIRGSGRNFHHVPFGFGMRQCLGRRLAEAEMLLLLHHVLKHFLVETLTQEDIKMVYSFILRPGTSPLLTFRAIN
SMILES,EC50 (human CYP11B1),EC50 (CYP11B2 [1]),other results
"CC(=O)N1CCC(Cc2c[nH]nc2-c2ccc3c(c2)CCC(=O)N3C)CC1 [Example 16, 6-[4-[(1-Acetyl-4-piperidyl)methyl]-1H-pyrazol-3-yl]-1-methyl-3,4-dihydroquinolin-2-one]",0.266 nM,0.0283 nM,
"CN1C(=O)CCc2cc(-c3n[nH]cc3CC3CCN(C(=O)c4cnn(C)c4)CC3)ccc21 [Example 17, 1-Methyl-6-[4-[[1-(1-methylpyrazole-4-carbonyl)-4-piperidyl]methyl]-1H-pyrazol-3-yl]-3,4-dihydroquinolin-2-one]",1.2 nM,,
"CCS(=O)(=O)N1CCC(Cc2c[nH]nc2-c2ccc3c(c2)CCC(=O)N3C)CC1 [Example 18, 6-[4-[(1-Ethylsulfonyl-4-piperidyl)methyl]-1H-pyrazol-3-yl]-1-methyl-3,4-dihydroquinolin-2-one]",0.216 nM,0.0052 nM,
"CC(=O)N1CCC(Cc2c[nH]nc2-c2cc3c(cc2F)N(C)C(=O)CC3)CC1 [Example 19, 6-[4-[(1-Acetylpiperidin-4-yl)methyl]-1H-pyrazol-3-yl]-7-fluoro-1-methyl-3,4-dihydroquinolin-2-one]",0.416 nM,0.0171 nM,
"CN1C(=O)CCc2c1ccc(-c1n[nH]cc1CC1CCN(C(=O)c3cnn(C)c3)CC1)c2F [Example 20, 5-Fluoro-1-methyl-6-[4-[[1-(1-methylpyrazole-4-carbonyl)piperidin-4-yl]methyl]-1H-pyrazol-3-yl]-3,4-dihydroquinolin-2-one]",0.723 nM,,
"CC(=O)N1CCC(Cc2c[nH]nc2-c2ccc3c(c2F)CCC(=O)N3C)CC1 [Example 21, 6-[4-[(1-Acetyl-4-piperidyl)methyl]-1H-pyrazol-3-yl]-5-fluoro-1-methyl-3,4-dihydroquinolin-2-one]",0.447 nM,0.012 nM,
"CCS(=O)(=O)N1CCC(Cc2cn[nH]c2-c2ccc3c(c2F)CCC(=O)N3C)CC1 [Example 22, 6-[4-[(1-Ethylsulfonylpiperidin-4-yl)methyl]-1H-pyrazol-3-yl]-5-fluoro-1-methyl-3,4-dihydroquinolin-2-one]",0.133 nM,,
"CN1C(=O)CCc2c1ccc(-c1[nH]ncc1CC1CCN(C(=O)c3ncccc3Cl)CC1)c2Cl [Example 28, 5-Chloro-6-[4-[[1-(3-chloropyridine-2-carbonyl)-4-piperidyl]methyl]-1H-pyrazol-3-yl]-1-methyl-3,4-dihydroquinolin-2-one]",2.45 nM,0.0276 nM,
"CN1C(=O)CCc2c1ccc(-c1[nH]ncc1CC1CCN(C(=O)c3ccnn3C)CC1)c2Cl [Example 29, 5-Chloro-1-methyl-6-[4-[[1-(2-methylpyrazole-3-carbonyl)-4-piperidyl]methyl]-1H-pyrazol-3-yl]-3,4-dihydroquinolin-2-one]",3.31 nM,0.0164 nM,
"CN1C(=O)CCc2c1ccc(-c1[nH]ncc1CC1CCN(C(=O)c3ccncc3Cl)CC1)c2Cl [Example 30, 5-Chloro-6-[4-[[1-(3-chloropyridine-4-carbonyl)-4-piperidyl]methyl]-1H-pyrazol-3-yl]-1-methyl-3,4-dihydroquinolin-2-one]",2.47 nM,0.0192 nM,
"CN1C(=O)CCc2cc(-c3[nH]ncc3CC3CCN(C(=O)c4cncn4C)CC3)ccc21 [Example 31, 1-Methyl-6-[4-[[1-(3-methylimidazole-4-carbonyl)-4-piperidyl]methyl]-1H-pyrazol-3-yl]-3,4-dihydroquinolin-2-one]",1.12 nM,0.007 nM,
"CN1C(=O)CCc2cc(-c3[nH]ncc3CC3CCN(C(=O)c4nccn4C)CC3)ccc21 [Example 32, 1-Methyl-6-[4-[[1-(1-methylimidazole-2-carbonyl)-4-piperidyl]methyl]-1H-pyrazol-3-yl]-3,4-dihydroquinolin-2-one]",0.351 nM,0.0294 nM,
"CN1C(=O)CCc2cc(-c3[nH]ncc3CC3CCN(C(=O)c4ncccc4Cl)CC3)ccc21 [Example 34, 6-[4-[[1-(3-Chloropyridine-2-carbonyl)-4-piperidyl]methyl]-1H-pyrazol-3-yl]-1-methyl-3,4-dihydroquinolin-2-one]",0.547 nM,0.0145 nM,
"CCS(=O)(=O)N1CC2(CC(Cc3c[nH]nc3-c3ccc4c(c3Cl)CCC(=O)N4C)C2)C1 [Example 39, 5-Chloro-6-[4-[(2-ethylsulfonyl-2-azaspiro[3.3]heptan-6-yl)methyl]-1H-pyrazol-3-yl]-1-methyl-3,4-dihydroquinolin-2-one]",0.215 nM,0.0059 nM,
"CC(=O)N1CC2(CC(Cc3c[nH]nc3-c3ccc4c(c3Cl)CCC(=O)N4C)C2)C1 [Example 40, 6-[4-[(2-Acetyl-2-azaspiro[3.3]heptan-6-yl)methyl]-1H-pyrazol-3-yl]-5-chloro-1-methyl-3,4-dihydroquinolin-2-one]",2.47 nM,0.0495 nM,
"CN1C(=O)CCc2c1ccc(-c1n[nH]cc1CC1CC3(C1)CN(C(=O)c1cnn(C)c1)C3)c2Cl [Example 41, 5-Chloro-1-methyl-6-[4-[[2-(1-methylpyrazole-4-carbonyl)-2-azaspiro[3.3]heptan-6-yl]methyl]-1H-pyrazol-3-yl]-3,4-dihydroquinolin-2-one]",7.29 nM,0.0377 nM,
N#Cc1ccc(C2CCCc3cncn32)cc1 (stereo not shown) [FAD286],,,"blood pressure and cardiovascular function and structure [2]: improved; kidney function and morphology [2]: improve; plasma aldosterone [3]: reduced; cardiac and aortic medial hypertrophy [3]: attenuated; renal effects (albuminuria, azotemia, renovascular hypertrophy, glomerular injury, PAI-1 and osteopontin mRNA, tubulointerstitial fibrosis) [3]: prevented these renal effects; angiotensin II and salt-stimulated PAI-1 mRNA expression [3]: not"
N#Cc1ccc([C@H]2CCc3cncn32)c(F)c1 [LCI699],,,"circulating aldosterone levels (CYP11B2 [4]; oral): significantly lower; blood pressure (CYP11B2 [4]): mildly decreased; hypokalemia (CYP11B2 [4]): corrected; selectivity (effects on the glucocorticoid axis, cortisol synthesis) (CYP11B2 [5]): poor selectivity"
CC(=O)S[C@@H]1CC2=CC(=O)CC[C@]2(C)[C@H]2CC[C@@]3(C)[C@@H](CC[C@@]34CCC(=O)O4)[C@H]12 [spironolactone],,,"plasma aldosterone [3]: increased; cardiac and aortic medial hypertrophy [3]: attenuated; renal effects (albuminuria, azotemia, renovascular hypertrophy, glomerular injury, PAI-1 and osteopontin mRNA, tubulointerstitial fibrosis) [3]: prevented these renal effects; angiotensin II and salt-stimulated PAI-1 mRNA expression [3]: enhanced"
